Target: human autotaxin (ATX) (Homo sapiens (Human), UniProt Q13822)
Experiment: Human Autotaxin Assay
Format: biochemical
Details: concentrated conditioned media from Hep3B cells; LPC substrate, choline release
Procedure: ATX activity is assayed in concentrated conditioned media from Hep3B human hepatocellular carcinoma cells by measuring the amount of choline released from the substrate, lysophosphatidylcholine (LPC) as it is cleaved to LPA. Conditioned media is collected from confluent Hep3B cells and concentrated 20-fold using Centriprep-30 filter devices (Millipore). To assay for autotaxin inhibition, 10-20 μL of the concentrated conditioned media is incubated with 2.5 μL of a test compound in DMSO and 72.5-82.5 μL lyso-PLD buffer (100 mM Tris pH 9, 500 mM NaCl, 5 mM MgCl2, 5 mM CaCl2, 0.05% Triton X-100 in the presence or absence of 0.2% fatty-acid-free human serum albumin) for 15 min at 37° C. After the 15 min incubation, 5 uL of 2 mM LPC (14:0; Avanti Polar Lipids Cat#855575C) diluted in lyso-PLD buffer is added for a final concentration of 100 uM and the incubation continues for 1.5-3 hours at 37° C.

IC50 | SMILES
≤ 500 nM | Cc1c(Sc2cccc(C(=O)O)c2)c2ccc(Cl)c(F)c2n1CC(=O)N1CCC(Cc2ccc(F)cc2)C1 (single isomer, unassigned; enantiomer a) [Compound 1-65, 3-((6-Chloro-7-fluoro-1-(2-(3-(4-fluorobenzyl)pyrrolidin-1-yl)-2-oxoethyl)-2-methyl-1H-indol-3-yl)thio)benzoic acid Enantiomer A]
500 to 3000 nM | Cc1c(Sc2cccc(C(=O)O)c2)c2ccc(Cl)c(F)c2n1CC(=O)N1CCC(c2ccc(F)cc2)C1 (single isomer, unassigned; enantiomer a) [Compound 1-74, 3-((6-Chloro-7-fluoro-1-(2-(3-(4-fluorophenyl)pyrrolidin-1-yl)-2-oxoethyl)-2-methyl-1H-indol-3-yl)thio)benzoic acid Enantiomer A]
500 to 3000 nM | Cc1c(Sc2cccc(C(=O)O)c2)c2ccc(Cl)c(F)c2n1CC(=O)N1CCC(Cc2ccc(F)cc2)C1 (single isomer, unassigned; enantiomer b) [Compound 1-66, 3-((6-Chloro-7-fluoro-1-(2-(3-(4-fluorobenzyl)pyrrolidin-1-yl)-2-oxoethyl)-2-methyl-1H-indol-3-yl)thio)benzoic acid Enantiomer B]
≤ 500 nM | Cc1c(Sc2cccc(C(=O)O)c2)c2ccc(Cl)c(F)c2n1CC(=O)N1CCC(c2ccc(F)cc2)C1 (single isomer, unassigned; enantiomer b) [Compound 1-75, 3-((6-Chloro-7-fluoro-1-(2-(3-(4-fluorophenyl)pyrrolidin-1-yl)-2-oxoethyl)-2-methyl-1H-indol-3-yl)thio)benzoic acid Enantiomer B]
≤ 500 nM | Cc1c(Sc2cccc(C(=O)O)c2)c2ccc(Cl)c(F)c2n1CC(=O)NC(C)C [Compound 1-1, 3-((6-Chloro-7-fluoro-1-(2-(isopropylamino)-2-oxoethyl)-2-methyl-1H-indol-3-yl)thio)benzoic acid]
500 to 3000 nM | Cc1c(Sc2cccc(C(=O)O)c2)c2ccc(Cl)c(F)c2n1CC(=O)NC1CCCCC1 [Compound 1-2, 3-((6-Chloro-1-(2-(cyclohexylamino)-2-oxoethyl)-7-fluoro-2-methyl-1H-indol-3-yl)thio)benzoic acid]
500 to 3000 nM | Cc1c(Sc2cccc(C(=O)O)c2)c2ccc(Cl)c(F)c2n1CC(=O)Nc1ccccc1 [Compound 1-3, 3-((6-Chloro-7-fluoro-2-methyl-1-(2-oxo-2-(phenylamino)ethyl)-1H-indol-3-yl)thio)benzoic acid]
> 3000 nM | Cc1c(Sc2cccc(C(=O)O)c2)c2ccc(Cl)c(F)c2n1CC(=O)Nc1cc(Cl)cc(Cl)c1 [Compound 1-4, 3-((6-Chloro-1-(2-((3,5-dichlorophenyl)amino)-2-oxoethyl)-7-fluoro-2-methyl-1H-indol-3-yl)thio)benzoic acid]
≤ 500 nM | Cc1c(Sc2cccc(C(=O)O)c2)c2ccc(Cl)c(F)c2n1CC(=O)NCC(F)(F)F [Compound 1-5, 3-((6-Chloro-7-fluoro-2-methyl-1-(2-oxo-2-((2,2,2-trifluoroethyl)amino)ethyl)-1H-indol-3-yl)thio)benzoic acid]
≤ 500 nM | Cc1c(Sc2cccc(C(=O)O)c2)c2ccc(Cl)c(F)c2n1CC(=O)Nc1cnn(C)c1 [Compound 1-6, 3-((6-Chloro-7-fluoro-2-methyl-1-(2-((1-methyl-1H-pyrazol-4-yl)amino)-2-oxoethyl)-1H-indol-3-yl)thio)benzoic acid]
≤ 500 nM | Cc1c(Sc2cccc(C(=O)O)c2)c2ccc(Cl)c(F)c2n1CC(=O)N(C)C [Compound 1-7, 3-((6-Chloro-1-(2-(dimethylamino)-2-oxoethyl)-7-fluoro-2-methyl-1H-indol-3-yl)thio)benzoic acid]
500 to 3000 nM | Cc1c(Sc2cccc(C(=O)O)c2)c2ccc(Cl)c(F)c2n1CC(=O)N(C)c1ccccc1 [Compound 1-8, 3-((6-Chloro-7-fluoro-2-methyl-1-(2-(methyl(phenyl)amino)-2-oxoethyl)-1H-indol-3-yl)thio)benzoic acid]
≤ 500 nM | Cc1c(Sc2cccc(C(=O)O)c2)c2ccc(Cl)c(F)c2n1CC(=O)N1CCCC1 [Compound 1-9, 3-((6-Chloro-7-fluoro-2-methyl-1-(2-oxo-2-(pyrrolidin-1-yl)ethyl)-1H-indol-3-yl)thio)benzoic acid]
≤ 500 nM | Cc1c(Sc2cccc(C(=O)O)c2)c2ccc(Cl)c(F)c2n1CC(=O)N1CCCCC1 [Compound 1-10, 3-((6-Chloro-7-fluoro-2-methyl-1-(2-oxo-2-(piperidin-1-yl)ethyl)-1H-indol-3-yl)thio)benzoic acid]
500 to 3000 nM | Cc1c(Sc2cccc(C(=O)O)c2)c2ccc(Cl)c(F)c2n1CC(=O)Nc1cnoc1 [Compound 1-11, 3-((6-Chloro-7-fluoro-1-(2-(isoxazol-4-ylamino)-2-oxoethyl)-2-methyl-1H-indol-3-yl)thio)benzoic acid]
≤ 500 nM | Cc1c(Sc2cccc(C(=O)O)c2)c2ccc(Cl)c(F)c2n1CC(=O)N1CCC2(CC1)CNC(=O)O2 [Compound 1-12]
≤ 500 nM | Cc1c(Sc2cccc(C(=O)O)c2)c2ccc(Cl)c(F)c2n1CC(=O)N1CCC(OCc2ccc(F)c(F)c2)CC1 [Compound 1-13, 3-((6-Chloro-1-(2-(4-((3,4-difluorobenzyl)oxy)piperidin-1-yl)-2-oxoethyl)-7-fluoro-2-methyl-1H-indol-3-yl)thio)benzoic acid]
≤ 500 nM | Cc1c(Sc2cccc(C(=O)O)c2)c2ccc(Cl)c(F)c2n1CC(=O)N1CCc2ccccc21 [Compound 1-14, 3-((6-Chloro-7-fluoro-1-(2-(indolin-1-yl)-2-oxoethyl)-2-methyl-1H-indol-3-yl)thio)benzoic acid]
500 to 3000 nM | Cc1c(Sc2cccc(C(=O)O)c2)c2ccc(Cl)c(F)c2n1CC(=O)N1CCCC(Cc2ccc(F)cc2)C1 (stereo not drawn) [Compound 1-15, 3-((6-Chloro-7-fluoro-1-(2-(3-(4-fluorobenzyl)piperidin-1-yl)-2-oxoethyl)-2-methyl-1H-indol-3-yl)thio)benzoic acid]
≤ 500 nM | Cc1c(Sc2cccc(C(=O)O)c2)c2ccc(Cl)c(F)c2n1CC(=O)N1CCC2(CC1)CC(=O)C2 [Compound 1-18, 3-((6-Chloro-7-fluoro-2-methyl-1-(2-oxo-2-(2-oxo-7-azaspiro[3.5]nonan-7-yl)ethyl)-1H-indol-3-yl)thio)benzoic acid]
≤ 500 nM | Cc1c(Sc2cccc(C(=O)O)c2)c2ccc(Cl)c(F)c2n1CC(=O)N1CCC2(CC1)CC(C#N)C2 [Compound 1-19, 3-((6-Chloro-1-(2-(2-cyano-7-azaspiro[3.5]nonan-7-yl)-2-oxoethyl)-7-fluoro-2-methyl-1H-indol-3-yl)thio)benzoic acid]
≤ 500 nM | Cc1c(Sc2cccc(C(=O)O)c2)c2ccc(Cl)c(F)c2n1CC(=O)N1CCC(OCc2ccc(F)cc2)C1 (stereo not drawn) [Compound 1-22, 3-((6-Chloro-7-fluoro-1-(2-(3-((4-fluorobenzyl)oxy)pyrrolidin-1-yl)-2-oxoethyl)-2-methyl-1H-indol-3-yl)thio)benzoic acid]
≤ 500 nM | Cc1c(Sc2cccc(C(=O)O)c2)c2ccc(Cl)c(F)c2n1CCC(=O)N1CCCC1 [Compound 1-25, 3-((6-Chloro-7-fluoro-2-methyl-1-(3-oxo-3-(pyrrolidin-1-yl)propyl)-1H-indol-3-yl)thio)benzoic acid]
≤ 500 nM | Cc1c(Sc2cccc(C(=O)O)c2)c2ccc(Cl)c(F)c2n1CCC(=O)N1CCc2ccccc21 [Compound 1-26, 3-((6-Chloro-7-fluoro-1-(3-(indolin-1-yl)-3-oxopropyl)-2-methyl-1H-indol-3-yl)thio)benzoic acid]
